Reference: patent US20140275090A1, “BILE ACID RECYCLING INHIBITORS FOR TREATMENT OF PRIMARY SCLEROSING CHOLANGITIS AND INFLAMMATORY BOWEL DISEASE” (Lumena Pharmaceuticals, Inc., priority 2013, published 2014)

Key:
[1] = Systemic exposure of LUM001 in patients under 18 years (study NB-00-02-014); format: in vivo, human; details: QD, day eight
Method: LUM001 has been administered to forty patients under the age of 18 years old. […] The drug was administered once-a-day (QD) in the morning for fourteen days. […] These doses are similar to those using to treat patients with PSC-IBD or PSC.

serum cholesterol = assay: Serum total, HDL and non-HDL cholesterol, hamsters dosed 28 days; format: in vivo, golden Syrian hamster; details: hamster
From the text: Male golden Syrian hamsters (126-147 gm) were obtained from Charles Rivers Laboratories and were single housed in a constant temperature environment with alternating 12-hour light and dark cycles. Hamsters were fed Teklad 7001 rodent meal chow at libitum for two weeks before the experimental studies began and switched to Teklad 7001 rodent meal chow supplemented with 0.24% cholesterol on day one of the 28-day experiment. Water was continuously available to the animals. Hamsters were assigned to groups in a manner that normalized each group by pretreatment body weights. SD-5613 was dissolved in an aqueous solution of 0.2% (w/v) Tween 80 and administered Q.D. by intragastric gavage between 9 a.m. and 10 a.m. each morning using a syringe fitted with a flexible feeding tube. Blood samples were collected after 14- and 28-day treatment periods by orbital sinus and cardiac puncture, respectively. Hamsters were anesthetized but not fasted prior to blood collections. Fecal samples were collected during a 48-hour period at the end of days 14 and 28 (i.e. days 13-14 and 27-28). Hamsters were sacrificed using carbon dioxide asphyxiation to obtain the following tissue samples: liver, kidneys, colon and cecum.
Blood was collected at 14 and 28 days from non-fasted hamsters and put into serum separator tubes. The blood cells were separated from the serum by centrifugation at 2000×g for 20 minutes and the serum decanted. Total cholesterol was measured using a Cobas Mira Classic clinical chemistry analyzer (Roche Diagnostic Systems, Indianapolis, Ind.). This analyzer used the cholesterol oxidase reaction to produce hydrogen peroxide which was measured colorimetrically. The cholesterol reagent (Roche Diagnostic Systems) was reconstituted according to package insert. The reagent was calibrated using Roche Calibrator Serum. Commercial bi-level quality control material was analyzed to verify calibration and reagent performance (QC1, QC2-Bio-Rad Laboratories, Irvine, Calif.). The cholesterol content of each sample was measured at 500 nm and 37° C. in a calibrated analyzer by mixing 3 μl of sample with 150 μl cholesterol reagent and 40 μl water.
The Unimate HDL Direct Cholesterol assay (DHDL, Roche Diagnostics) was based on the […] of synthetic polymers and polyanions to the surface of lipoproteins. The combined action of polymers, polyanions and detergent solubilizes cholesterol from HDL, but transforms LDL, VLDL, and chylomicrons into detergent-resistant forms. Solubilized cholesterol was oxidized by the sequential enzymatic action of cholesterol esterase and cholesterol oxidase. The H2O2 produced in this reaction was reacted with chromogens to form a colored dye. The increase in absorbance at 550 nm was directly proportional to the HDL cholesterol concentration of the sample. The test was performed using a Cobas Mira Classic clinical chemistry analyzer (Roche Diagnostic Systems). The DHDL reagent (Roche Diagnostic Systems) was reconstituted according to the package insert. The reagent was calibrated using Roche HDL Direct Calibrator. Commercial bi-level quality control material was analyzed to verify calibration and reagent performance (Liquichek Lipids Control, Level 1 & 2, Bio-Rad Laboratories, Irvine, Calif.). A 2.4 μl aliquot of serum was analyzed in the presence of 240 μl of Reagent 1, 80 μl of Reagent 2 and 5 μl of water at 37° C. and 550 nm wavelength. Triglycerides were hydrolyzed by lipoprotein lipase to glycerol and fatty acids. Glycerol was then phosphorylated to glycerol-3-phosphate by adenosine 5-triphosphate (ATP) in a reaction catalyzed by glycerol kinase (GK). The oxidation of glycerol-3-phosphate was catalyzed by glycerolphosphate oxidase (GPO) to form dihydroxyacetone phosphate and hydrogen peroxide. The hydrogen peroxide reacted with 4-cholorophenol and 4-aminophenazone in the presence of peroxidase to form a quinoneimine complex, which was read at 490-550 nm. […]

[2] = Toxicokinetics of LUM001 free form, 13-week oral gavage toxicity study in rats; format: in vivo; details: plasma; rat, after IV administration of 3 mg/kg; read-out: AUC(0-24 h)
serum bile acids = assay: Time to onset of activity of LUM001 on postprandial serum total bile acids (SBA) in beagle dogs; format: in vivo; details: dog SBA model, oral, 1 hour after feeding
Method: LUM001 was dissolved in water at concentrations that required the administration of 0.2 ml/kg of solution. Solutions were placed into gelatin capsules, Torpac Inc., size 13 Batch 594, East Hanover N.J., and administered orally.
Male beagle dogs were obtained from Covance Research Products, Cumberland Va. or Marshall Farms USA, Inc., North Rose N.Y. A total of 20 dogs, 1 to 5 years old, 6.8 to 15.6 kg body weight, were used in these experiments. The dogs were conditioned to a 12 hour light/dark cycle and maintained on a feeding restriction of 1 hour per day access to food (Richman Standard Certified Canine Diet #5007, PMI Nutrition, Inc., St. Louis Mo.) from 7 to 8 AM. They were trained to eat a special meal promptly within 20 minutes when presented (1 can. 397 g, Evanger's 100% Beef for Dogs, Evanger's Dog and Cat Food Co., Inc., Wheeling Ill., mixed with 50 g of sharp cheddar cheese.).
SBA was measured by an enzymatic assay. SBA values are expressed as […] of total bile acids/ml of serum.
To estimate the details of this plateau, 6 dogs were given a test meal and blood samples for SBA measurement were collected at −30, 0, 30, 60, 65, 70, 80, 90, 120, 180, 240, 360, 480, 720, 1410 and 1440 minutes from the time of feeding. Any remaining food was removed 20 min after it was first presented to the dogs. […]

systemic exposure [1]: minimally absorbed
Structure (SMILES): CCCCC1(CCCC)CS(=O)(=O)c2ccc(N(C)C)cc2[C@@H](c2ccc(OCc3ccc(C[N+]45CCN(CC4)CC5)cc3)cc2)[C@H]1O [LUM001]
HDL-cholesterol (serum cholesterol; 5 mg/kg/day): 127 ± 10 mg/dL
HDL-cholesterol, % change from vehicle group (serum cholesterol; 5 mg/kg/day): (−22) %
Non-HDL-cholesterol (serum cholesterol; 5 mg/kg/day): 99 ± 9 mg/dL
Non-HDL-cholesterol, % change from vehicle group (serum cholesterol; 5 mg/kg/day): (−37) %
Serum Total Cholesterol (serum cholesterol; 5 mg/kg/day): 225 ± 16 mg/dL
Serum Total Cholesterol, % change from vehicle group (serum cholesterol; 5 mg/kg/day): (−29) %
HDL-cholesterol (serum cholesterol; 15 mg/kg/day): 115 ± 7 mg/dL
HDL-cholesterol, % change from vehicle group (serum cholesterol; 15 mg/kg/day): (−29) %
Non-HDL-cholesterol (serum cholesterol; 15 mg/kg/day): 86 ± 8 mg/dL
Non-HDL-cholesterol, % change from vehicle group (serum cholesterol; 15 mg/kg/day): (−45) %
Serum Total Cholesterol (serum cholesterol; 15 mg/kg/day): 201 ± 14 mg/dL
Serum Total Cholesterol, % change from vehicle group (serum cholesterol; 15 mg/kg/day): (−37) %
HDL-cholesterol (serum cholesterol; 50 mg/kg/day): 102 ± 4 mg/dL
HDL-cholesterol, % change from vehicle group (serum cholesterol; 50 mg/kg/day): (−37) %
Non-HDL-cholesterol (serum cholesterol; 50 mg/kg/day): 76 ± 4 mg/dL
Non-HDL-cholesterol, % change from vehicle group (serum cholesterol; 50 mg/kg/day): (−52) %
Serum Total Cholesterol (serum cholesterol; 50 mg/kg/day): 178 ± 6 mg/dL
Serum Total Cholesterol, % change from vehicle group (serum cholesterol; 50 mg/kg/day): (−44) %
AUC(0-t) [2]: 4320 ng·h/mL
threshold dose (serum bile acids): 0.05 mg/kg
